Reference: PubChem BioAssay (NCI)
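GI50 = concentration required for 50% inhibition of growth. At the TGI there is no net growth.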

Key:
Assay in all cases: NCI tumour cell line growth inhibition, 384-well format
MDA-MB-435 melanoma = test system: MDA-MB-435 melanoma
TK-10 renal = test system: TK-10 renal
SK-MEL-2 melanoma = test system: SK-MEL-2 melanoma
KM12 colon = test system: KM12 colon
MCF7 breast = test system: MCF7 breast
RXF 393 renal = test system: RXF 393 renal
M14 melanoma = test system: M14 melanoma
IGROV1 ovarian = test system: IGROV1 ovarian
RPMI-8226 leukemia = test system: RPMI-8226 leukemia
OVCAR-3 ovarian = test system: OVCAR-3 ovarian
SNB-75 CNS = test system: SNB-75 CNS
U251 glioblastoma = test system: U251 glioblastoma
SK-MEL-28 melanoma = test system: SK-MEL-28 melanoma
SR leukemia = test system: SR leukemia
BT-549 breast = test system: BT-549 breast
786-0 renal = test system: 786-0 renal
OVCAR-8 ovarian = test system: OVCAR-8 ovarian
NCI-H322M lung = test system: NCI-H322M lung
PC-3 prostate = test system: PC-3 prostate
OVCAR-4 ovarian = test system: OVCAR-4 ovarian
NCI/ADR-RES ovarian = test system: NCI/ADR-RES ovarian
SK-MEL-5 melanoma = test system: SK-MEL-5 melanoma
HS 578T breast = test system: HS 578T breast
MDA-MB-468 breast = test system: MDA-MB-468 breast
EKVX NSCLC = test system: EKVX NSCLC
HCC-2998 colon = test system: HCC-2998 colon
NCI-H23 lung = test system: NCI-H23 lung
SNB-19 CNS = test system: SNB-19 CNS
HT29 colon = test system: HT29 colon
SF-539 CNS = test system: SF-539 CNS
UACC-257 melanoma = test system: UACC-257 melanoma
SN12C renal = test system: SN12C renal
CCRF-CEM leukemia = test system: CCRF-CEM leukemia
A549 NSCLC = test system: A549 NSCLC
A498 renal = test system: A498 renal
COLO 205 colon = test system: COLO 205 colon
HL-60(TB) leukemia = test system: HL-60(TB) leukemia
MALME-3M melanoma = test system: MALME-3M melanoma
HCT-116 colon = test system: HCT-116 colon
MDA-MB-231 breast = test system: MDA-MB-231 breast
SK-OV-3 ovarian = test system: SK-OV-3 ovarian
HOP-62 NSCLC = test system: HOP-62 NSCLC
MOLT-4 leukemia = test system: MOLT-4 leukemia
K-562 leukemia = test system: K-562 leukemia
LOX IMVI melanoma = test system: LOX IMVI melanoma
HCT-15 colon = test system: HCT-15 colon
SF-268 CNS = test system: SF-268 CNS
UACC-62 melanoma = test system: UACC-62 melanoma
NCI-H460 NSCLC = test system: NCI-H460 NSCLC

CN(c1ncccc1CNc1nc(Nc2ccc3c(c2)CC(=O)N3)ncc1C(F)(F)F)S(C)(=O)=O
GI50 (MDA-MB-435 melanoma): 2290 nM | TGI (MDA-MB-435 melanoma): 7700 nM | GI50 (TK-10 renal): 2790 nM | TGI (TK-10 renal): > 100000 nM | GI50 (SK-MEL-2 melanoma): 1850 nM | TGI (SK-MEL-2 melanoma): 3580 nM | GI50 (KM12 colon): 218 nM | TGI (KM12 colon): 1720 nM | GI50 (MCF7 breast): 1020 nM | TGI (MCF7 breast): 8250 nM | GI50 (RXF 393 renal): 1200 nM | TGI (RXF 393 renal): 2690 nM | GI50 (M14 melanoma): 1750 nM | TGI (M14 melanoma): 4240 nM | GI50 (IGROV1 ovarian): 2420 nM | TGI (IGROV1 ovarian): > 100000 nM | GI50 (RPMI-8226 leukemia): 1660 nM | TGI (RPMI-8226 leukemia): 3030 nM | GI50 (OVCAR-3 ovarian): 2000 nM | TGI (OVCAR-3 ovarian): 4740 nM | GI50 (SNB-75 CNS): 1550 nM | TGI (SNB-75 CNS): 3600 nM | GI50 (U251 glioblastoma): 2880 nM | TGI (U251 glioblastoma): > 100000 nM | GI50 (SK-MEL-28 melanoma): 1850 nM | TGI (SK-MEL-28 melanoma): 4200 nM | GI50 (SR leukemia): 501 nM | TGI (SR leukemia): 1670 nM | GI50 (BT-549 breast): 1740 nM | TGI (BT-549 breast): 3880 nM | GI50 ([…]-0 renal): 2440 nM | TGI (786-0 renal): 7780 nM | GI50 (OVCAR-8 ovarian): 3310 nM | TGI (OVCAR-8 ovarian): > 100000 nM | GI50 (NCI-H322M lung): 2010 nM | TGI (NCI-H322M lung): 4450 nM | GI50 (PC-3 prostate): 2510 nM | TGI (PC-3 prostate): > 100000 nM | GI50 (OVCAR-4 ovarian): 2480 nM | TGI (OVCAR-4 ovarian): 8640 nM | GI50 (NCI/ADR-RES ovarian): 26000 nM | TGI (NCI/ADR-RES ovarian): 95600 nM | GI50 (SK-MEL-5 melanoma): 1630 nM | TGI (SK-MEL-5 melanoma): 3110 nM | GI50 (HS 578T breast): 1620 nM | TGI (HS 578T breast): 3700 nM | GI50 (MDA-MB-468 breast): 1850 nM | TGI (MDA-MB-468 breast): 3380 nM | GI50 (EKVX NSCLC): 1490 nM | TGI (EKVX NSCLC): 4170 nM | GI50 (HCC-2998 colon): 1190 nM | TGI (HCC-2998 colon): 3210 nM | GI50 (NCI-H23 lung): 1790 nM | TGI (NCI-H23 lung): 3340 nM | GI50 (SNB-19 CNS): 3390 nM | TGI (SNB-19 CNS): > 100000 nM | GI50 (HT29 colon): 3740 nM | TGI (HT29 colon): > 100000 nM | GI50 (SF-539 CNS): 1860 nM | TGI (SF-539 CNS): 3700 nM | GI50 (UACC-257 melanoma): 2010 nM | TGI (UACC-257 melanoma): 4340 nM | GI50 (SN12C renal): 2400 nM | TGI (SN12C renal): 5720 nM | GI50 (CCRF-CEM leukemia): 1710 nM | TGI (CCRF-CEM leukemia): 3330 nM | GI50 (A549 NSCLC): 3150 nM | TGI (A549 NSCLC): > 100000 nM | GI50 (A498 renal): 2910 nM | TGI (A498 renal): > 100000 nM | GI50 (COLO 205 colon): 1460 nM | TGI (COLO 205 colon): 4280 nM | GI50 (HL-60(TB) leukemia): 1700 nM | TGI (HL-60(TB) leukemia): 3090 nM | GI50 (MALME-3M melanoma): 2200 nM | TGI (MALME-3M melanoma): 4940 nM | GI50 (HCT-116 colon): 1890 nM | TGI (HCT-116 colon): > 100000 nM | GI50 (MDA-MB-231 breast): 2550 nM | TGI (MDA-MB-231 breast): > 100000 nM | GI50 (SK-OV-3 ovarian): 3100 nM | TGI (SK-OV-3 ovarian): > 100000 nM | GI50 (HOP-62 NSCLC): 1970 nM | TGI (HOP-62 NSCLC): 7830 nM | GI50 (MOLT-4 leukemia): 431 nM | TGI (MOLT-4 leukemia): 1300 nM | GI50 (K-562 leukemia): 2830 nM | TGI (K-562 leukemia): > 100000 nM | GI50 (LOX IMVI melanoma): 1540 nM | TGI (LOX IMVI melanoma): 3580 nM | GI50 (HCT-15 colon): 3810 nM | TGI (HCT-15 colon): 17000 nM | GI50 (SF-268 CNS): 1820 nM | TGI (SF-268 CNS): 3990 nM | GI50 (UACC-62 melanoma): 1390 nM | TGI (UACC-62 melanoma): 2860 nM | GI50 (NCI-H460 NSCLC): 1610 nM | TGI (NCI-H460 NSCLC): 3290 nM
